From patent US8252822B2, “Heterocyclic compounds and uses as anticancer agents” (Acea Biosciences, Inc., priority 2007, dated 2012)
Where two headings read alike, the source gives them in different places.

Tests used:
PC3 = assay: RT-CES cell proliferation inhibition, PC3; format: cell-based; conditions: Homo sapiens, PC-3
Source text: (§1) The biological activity of compounds disclosed herein was monitored and profiled using the Real-Time Cell Electronic Sensing (RT-CES®) system from ACEA Biosciences, Inc. The RT-CES system utilizes cell-substrate impedance technology to monitor cellular behavior inside tissue culture wells in a microtiter plate format. The technology features in the integration of molecular and cell biology with microelectronics and is based on the electronic detection of biological assay process. The details of this cell electronic sensing technology and associated devices, systems and methods of use as described in U.S. provisional application No. 60/379,749, filed on Jul. […]
(§2) For measurement of cell-substrate or cell-electrode impedance using RT-CES technology, microelectrodes having appropriate geometries are fabricated onto the bottom surfaces of microtiter plate or similar device, facing into the wells. […] When there are changes to the biological status of the cells analogue electronic readout signals are measured automatically and in real time, and are converted to digital signals for processing and for analysis. In a RT-CES system, a cell index (arbitrary representation of change in impedance) is automatically derived and provided based on measured electrode impedance values. […]
(§3) To quantify cell status based on the measured cell-electrode impedance, a parameter termed Cell Index is derived. […]

Panc-1 = assay: RT-CES cell proliferation inhibition, Panc-1; format: cell-based; conditions: Homo sapiens
Source text: as §1, §2, §3

HT1080 = assay: RT-CES cell proliferation inhibition, HT1080; format: cell-based; conditions: Homo sapiens, HT-1080
Source text: as §1, §2, §3

ST30 = assay: RT-CES cell proliferation inhibition, ST30; format: cell-based; conditions: Homo sapiens
Source text: as §1, §2, §3

S180 sarcoma = assay: Anti-tumor activity against S180 bearing mouse model; format: in vivo, ICR mice; conditions: for Inhibition Rate (%) / Tumor Weight: qd for 9 days; for Body Weight (g) Start: mouse, in vivo
Protocol: (§4) ACEA100160 (2-(4-ethoxyphenyl)amino-4-(6-methylimidazo[1,2-a]pyrimidin-3-yl)thiazole) and ACEA 100162 (2-(4-ethoxyphenyl)amino-4-(6-methylimidazo[2,1-b]thiazol-5-yl)thiazole) are prepared at concentration of 8 mg/ml in solution containing 20% HP-beta-CD dextrose (D5W). The solvent HP-beta-CD solution is used as a vehicle negative control.
ICR mice, male, 21.4±1.5 g
S180 sarcoma: murine cancer cell line S180.
The malignant ascites model of ICR mouse was induced by S180 cells.
Under a sterilized condition, sacrifice the ICR murine S180 bearing mice, take out of the ascites and dilute with NS to certain cell numbers. Inject 0.2 ml cell suspension (10^6 cells) subcutaneously into the left flank on ICR mice. On the first treatment day before iv or ip, implanted animals are randomly divided into ten groups as following. The drugs were administrated in the schedule of Table 11 respectively. The solvent HP-beta-CD solution is used as a vehicle negative control. Observe clinical signs at least daily.
(§5) Tumor weight was recorded. The tumor inhibitory rate was calculated as follows: inhibitory rate=1-Wt/W0, where Wt is the average weight of each drug treatment group and W0 is the average weight of negative control group. Results are given as mean±SD values from n animals. Comparisons between groups were made with Student's two-tailed t test and a P<0.05 was considered significant.

[1] = test system: murine Lewis lung cancer (LLC); assay: Anti-tumor activity against LLC mice model; format: in vivo, C57 BL/6 mice; conditions: 40 mg/kg; for Tumor Weight / Inhibition Rate (%): LLC, 12 days; for Tumor Weight: qod (Table 14); for Inhibition Rate (%): qod (Table 14; text qd); for Body Weight (g) Start: mouse, in vivo
Protocol: as §4
LLC: murine Lewis lung cancer cell line.
LLC cells were cultured in DMEM medium with 10% FBS to obtain the necessary cell number for injection subcutaneously (10^7 cells).
Under a sterilized condition, sacrifice the C57 BL/6 murine LLC bearing mice, separate tumor and put it into NS. Chop the tumor into fine pieces with sterilized scissors and then homogenate into cell suspension. Inject 0.2 ml cell suspension (10^6 cells) subcutaneously into the left flank on C57 BL/6 mice. On the first treatment day before iv or ip, implanted animals are randomly divided into seven groups as following. The drugs were administrated in the schedule of Table 13 respectively. The solvent HP-beta-CD solution is used as a vehicle negative control. Observe clinical signs at least daily.
as §5

IC50 (PC3; PC3, 24 hrs, read-out: IC50 (24 hr)): 10.9 nM | IC50 (PC3; PC3, 48 hrs, read-out: IC50 (48 hr)): 5.37 nM | IC50 (Panc-1; Panc-1, 24 hrs, read-out: IC50 (24 hr)): 113 nM | IC50 (Panc-1; Panc-1, 48 hrs, read-out: IC50 (48 hr)): 426 nM | IC50 (HT1080; HT1080, 24 hrs, read-out: IC50 (24 hr)): 2.39 nM | IC50 (HT1080; HT1080, 48 hrs, read-out: IC50 (48 hr)): 2.69 nM
SMILES: Br.CCOc1ccc(Nc2nc(-c3c(C)nc4sccn34)cs2)cc1 [Compound 27, 2-(4-ethoxyphenyl)amino-4-(6-methylimidazo[2,1-b]thiazol-5-yl)thiazole]
IC50 (ST30; ST30, 24 hrs, read-out: IC50 (24 hr)): 38.8 nM | IC50 (ST30; ST30, 48 hrs, read-out: IC50 (48 hr)): 42.4 nM | Inhibition Rate (%) (S180 sarcoma; S180, IP, 40 mg/kg): 59.3% | Tumor Weight (S180 sarcoma; S180, IP, 40 mg/kg): 0.61 ± 0.21 g | Inhibition Rate (%) (S180 sarcoma; S180, IP, 80 mg/kg): 77.2% | Tumor Weight (S180 sarcoma; S180, IP, 80 mg/kg): 0.34 ± 0.16 g | Inhibition Rate (%) (S180 sarcoma; S180, IV, 40 mg/kg): 60.7% | Tumor Weight (S180 sarcoma; S180, IV, 40 mg/kg): 0.59 ± 0.24 g | Body Weight (g) Start (S180 sarcoma; ip, 40 mg/kg): 20.6 ± 0.4 g | Body Weight (g) Start (S180 sarcoma; ip, 80 mg/kg): 21.8 ± 1.5 g | Body Weight (g) Start (S180 sarcoma; iv, 40 mg/kg): 21.0 ± 0.4 g | Tumor Weight ([1]; IP): 0.70 ± 0.46 g | Inhibition Rate (%) ([1]; IP, listed as 162, 40 mg/kg): 39.2% | Inhibition Rate (%) ([1]; IP, listed as ACEA100162, 40 mg/kg): 39.15% | Tumor Weight ([1]; IV): 0.91 ± 0.18 g | Inhibition Rate (%) ([1]; IV): 25.5% | Body Weight (g) Start ([1]; ip): 19.0 ± 0.8 g | Body Weight (g) Start ([1]; iv): 18.5 ± 1.3 g
